The values below come from patent publication US20240400562A1, “COMPOUNDS AND COMPOSITIONS FOR TREATING CONDITIONS ASSOCIATED WITH LPA RECEPTOR ACTIVITY” (LHOTSE, BIO, INC., priority 2021, published 2024).

A short description of data set [1]: Pharmacokinetics measurements in rats. Type of data set: in vivo. The settings on record: SD male rats, plasma; for Cl_obs / AUC(0-t) / Cmax / Tmax: mean; for bioavailability / AUC(0-t) / Cmax / Tmax: rat; for bioavailability: PO 5 mg/kg vs IV 1 mg/kg. On the procedure: The PK properties of selected compounds were measured in SD Male rats following single oral (5 mg/kg) and Intravenous Administration (1 mg/kg).
Compounds 103 and 104 were prepared in a 1 mg/mL solution of 10% Solutol HS15 and 90% saline for oral administrations at 5 mL/kg and 0.2 mg/mL solution of 10% Solutol HS15 and 90% saline for intravenous administrations at 1 mL/kg, respectively, and administered to 3 rats per group. After dosing, blood collection was performed by Jugular vein sampling (by cannula) at 0.25, 0.5, 1, 2, 4, 6, 8, 24 h, and 0.083, 0.25, 0.5, 1, 2, 4, 8, 24 h, respectively, followed by centrifugation to obtain plasma. Samples were stored frozen at −80° C. prior to compound extraction and LC-MS/MS analysis. Pharmacokinetic parameters of compounds 103 and 104 in rats were calculated by standard noncompartmental modeling from the systemic plasma concentration-time profile.

For data set [2], the target named is T1, human LPA1 (Homo sapiens, UniProt Q92633).
T1 construct: expressed in transfected cells; host or cells: CHO-K1
As to the kind of experiment: In vitro LPA1 calcium flux antagonist assay. In kind it is cell-based. The settings on record: CHO-K1 cells overexpressing human LPA1 and G15a, LPA challenge at EC80, FLIPR calcium mobilization. How it is done: CHO-K1 cells overexpressing human LPA1 and G15a were seeded at a total volume of 20 μL (15000 cells/well) into Matrigel pre-coated 384-well plates (corning −3764) and incubated at 37° C. After overnight incubation, the cells were serum starved for 4 h. Assays were performed in dye loading buffer containing 1×Fluo-8 AM (AAT Bioquest, 21080) and 2.5 mM probenecid (Thermo Fisher, 36400) in HBSS/20 mM Hepes. After cell starvation, the medium was replaced with 20 μL of dye loading buffer and incubated at 37° C. for 30 min. Then 5 μL of 5× compound titrated in dye loading buffer was added to the cells and incubated for 30 min followed by LPA challenge at EC80. Calcium mobilization was measured on a FLIPR Tetra (MDS). For LPA EC80 determination, starved cells were incubated with 20 μL of dye loading buffer for 1 h, then 5 μL of 5×LPA titrated in dye loading buffer was added to the cells. Calcium signals induced by LPA was monitors on a FLIPR.
Percentage inhibition is calculated using the following formula: […]

The nature of data set [3]: Pharmacokinetics measurements in mice. The following applies: mouse; CD1 female mice, single oral 5 mg/kg, plasma, mean. Type of data set: in vivo. On the procedure: The PK properties of selected compounds were measured in CD1 female mice following single oral (5 mg/kg) administration.
Compounds 103 and 104 were prepared in a 1 mg/mL solution of 10% Solutol HS15 and 90%, saline for oral administrations at 5 mL/kg, respectively, and administered to 3 mice/3 groups. After dosing, blood collection was performed by dorsal metatarsal vein sampling at 0.25, 0.5, 1, 2, 4, 6, 8, 24 h, followed by centrifugation to obtain plasma. Samples were stored frozen at −80° C. prior to compound extraction and LC-MS/MS analysis. Pharmacokinetic parameters of compounds 103 and 104 in mice were calculated by standard noncompartmental modeling from the systemic plasma concentration-time profile.

SMILES strings stand for the structures. pIC50: −log10 of the molar value.

T1 sequence (Q92633 whole entry): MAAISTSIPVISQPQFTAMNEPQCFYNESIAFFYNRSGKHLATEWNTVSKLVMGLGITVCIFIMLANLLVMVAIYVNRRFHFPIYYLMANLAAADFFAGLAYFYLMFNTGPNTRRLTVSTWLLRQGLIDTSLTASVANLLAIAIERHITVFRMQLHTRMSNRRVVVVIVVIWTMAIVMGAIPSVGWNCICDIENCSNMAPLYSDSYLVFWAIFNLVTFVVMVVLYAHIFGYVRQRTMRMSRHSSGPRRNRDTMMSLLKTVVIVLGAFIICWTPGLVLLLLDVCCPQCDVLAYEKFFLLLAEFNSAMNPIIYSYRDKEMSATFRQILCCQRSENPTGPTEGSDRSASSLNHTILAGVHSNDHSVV

Take `COCc1cc(C(=O)O)c2nc(C[C@H](OC3CCCC3)[C@H](O)c3cc(OC)c(C)c(OC)c3)sc2c1` [Compound 104, 2-((2S,3R)-2-(cyclopentyloxy)-3-(3,5-dimethoxy-4-methylphenyl)-3-hydroxypropyl)-6-(methoxymethyl)benzo[d]thiazole-4-carboxylic acid]: in data set [1] (IV 1 mg/kg), the Cl_obs is listed as 8.8 mL/min/kg and the AUC(0-t) stood at 1900 ng·h/mL. The molecule further returned a bioavailability in data set [1] of 30.3%. Also, in data set [1] (PO 5 mg/kg), the exposure AUC(0-t) came out at 2890 ng·h/mL, the Cmax was 1520 ng/mL and the Tmax was 15 min. Also, the pIC50 in data set [2] was greater than 8.00. In data set [3], the area under the curve AUC(0-t) came out at 6950 ng·h/mL, the Cmax was 3840 ng/mL and the Tmax was found to be 15 min.

Regarding `CCOc1cc(C(=O)O)c2nc(C[C@H](OC3CCCC3)[C@H](O)c3ccc(C(F)F)c(OC)c3)sc2c1` [Compound 112], the pIC50 in data set [2] was 7.00 to 8.00.

As for `CCOc1ccc(C(=O)O)c2nc(C[C@H](OC3CCCC3)[C@H](O)c3cc(OC)c(C)c(OC)c3)sc12` [Compound 109], the negative-log IC50 (pIC50) in data set [2] was greater than 8.00.

Consider `COc1cc([C@@H](O)[C@H](Cc2cc3c(N(C)C)ccc(C(=O)O)n3n2)OC2CCCC2)cc(OC)c1C` [Compound 110], for which the pIC50 in data set [2] is less than 7.00.

Regarding `CNc1cc(C(=O)O)c2nc(C[C@H](OC3CCCC3)[C@H](O)c3cc(OC)c(C)c(OC)c3)sc2c1` [Compound 105, 2-((2S,3R)-2-(cyclopentyloxy)-3-(3,5-dimethoxy-4-methylphenyl)-3-hydroxypropyl)-6-(methylamino)benzo[d]thiazole-4-carboxylic acid], the negative logarithm of the IC50 (pIC50) in data set [2] is greater than 8.00.

With `CNc1ccc(C(=O)O)n2nc(C[C@H](OC3CCCC3)[C@H](O)c3cc(OC)c(C)c(OC)c3)cc12` [Compound 108, 2-((2S,3R)-2-(cyclopentyloxy)-3-(3,5-dimethoxy-4-methylphenyl)-3-hydroxypropyl)-4-(methylamino)pyrazolo[1,5-a]pyridine-7-carboxylic acid], in data set [2], the pIC50 is 7.00 to 8.00.

`COc1cc([C@@H](O)[C@H](Cc2nc3c(C(=O)O)ccc(OC)c3s2)OC2CCCC2)cc(OC)c1C` [Compound 107, 2-((2S,3R)-2-(cyclopentyloxy)-3-(3,5-dimethoxy-4-methylphenyl)-3-hydroxypropyl)-7-methoxybenzo[d]thiazole-4-carboxylic acid]: the pIC50 in data set [2] is greater than 8.00.

In the case of `CCCc1sc(C[C@H](OC2CCCC2)[C@H](O)c2cc(OC)c(C(C)=O)c(OC)c2)nc1C(C)C(=O)O` (some centres unmarked) [Compound 114], in data set [2], the pIC50 was 7.00 to 8.00.

Turning to `COc1cc([C@@H](O)[C@H](Cc2nc3c(C(=O)O)cc(N(C)C)cc3s2)OC2CCCC2)cc(OC)c1C` [Compound 106, 2-((2S,3R)-2-(cyclopentyloxy)-3-(3,5-dimethoxy-4-methylphenyl)-3-hydroxypropyl)-6-(dimethylamino)benzo[d]thiazole-4-carboxylic acid], the pIC50 in data set [2] was greater than 8.00.

With `CCOc1cc(C(=O)O)c2nc(C[C@H](OC3CCCC3)[C@H](O)c3ccc(C)c(OC)c3)sc2c1` [Compound 101, 2-((2S,3R)-2-(cyclopentyloxy)-3-hydroxy-3-(3-methoxy-4-methylphenyl)propyl)-6-ethoxybenzo[d]thiazole-4-carboxylic acid], the pIC50 in data set [2] was greater than 8.00.

As to `COc1cc(C(=O)O)c2nc(C[C@H](OC3CCCC3)[C@H](O)c3ccc(C(F)F)c(OC)c3)sc2c1` [Compound 102, 2-((2S,3R)-2-(cyclopentyloxy)-3-(4-(difluoromethyl)-3-methoxyphenyl)-3-hydroxypropyl)-6-methoxybenzo[d]thiazole-4-carboxylic acid], in data set [2], the negative-log IC50 (pIC50) is greater than 8.00.

On to `CCOc1ccc(C(=O)O)n2nc(C[C@H](OC3CCCC3)[C@H](O)c3cc(OC)c(C)c(OC)c3)cc12` [Compound 113], for which, in data set [2], the pIC50 is 7.00 to 8.00.

Take `COc1cc([C@@H](O)[C@H](Cc2nc3c(C(=O)O)cc(CO)cc3s2)OC2CCCC2)cc(OC)c1C` [Compound 103, 2-((2S,3R)-2-(cyclopentyloxy)-3-(3,5-dimethoxy-4-methylphenyl)-3-hydroxypropyl)-6-(hydroxymethyl)benzo[d]thiazole-4-carboxylic acid]: in data set [1] (IV 1 mg/kg), the Cl_obs came to 12.9 mL/min/kg and the AUC(0-t) came out at 1330 ng·h/mL. For the same molecule, in data set [1], the bioavailability was 27.3%. For the same molecule, in data set [1] (PO 5 mg/kg), the AUC(0-t) amounted to 1790 ng·h/mL, the Cmax was determined as 1490 ng/mL and the Tmax turned out to be 15 min. Further, the pIC50 in data set [2] was 7.00 to 8.00. Moreover, in data set [3], the AUC(0-t) amounted to 1640 ng·h/mL, the highest level (Cmax) was 463 ng/mL and the Tmax came out at 30 min.

Regarding `CCOc1cc(C(=O)O)c2nc(C[C@H](OC3CCCC3)[C@H](O)c3cc(OC)cc(OC)c3)sc2c1` [Compound 111], in data set [2], the pIC50 was 7.00 to 8.00.
